BindingDB's records for PubMed 15050915 (Novartis Institutes for BioMedical Research)

Experiment: Inhibition of PDK1 (unknown origin)

- IC50: 4.8 µM
Compound: Nc1ncnc2c1c(-c1cccc(OCc3ccccc3)c1)cn2[C@H]1C[C@@H](CN2CCC2)C1
